Read-outs that look alike come from different tables or passages of the source.
Biological target: T1, human CB2R (Homo sapiens, UniProt P34972)
T1 construct: host or cells: CHO cells
Assay: CB2R mediated modulation of cAMP synthesis
Type: cell-based
Settings: for agonistic activity: found through the use of the described assays (CB2 agonists), qualitative statement; for Emax: 0.5 h, read-out: Agonist Efficacy (%)
Method in brief: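 Forskolin (10 uM)-driven cAMP in human CB2R-expressing CHO cells, read with DiscoverX-XS kit after 30 min compound exposure at 37 °C, 1 mM IBMX, 0.25% BSA. 100% defined as forskolin cAMP relative to 1 uM CP55940 inhibition. Agonist EC50 via four-parameter logistic model.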

[1] = CHO cells expressing human CB2R, cAMP inhibited by 1 uM CP55940 defined as 100%

T1 sequence (P34972 whole entry): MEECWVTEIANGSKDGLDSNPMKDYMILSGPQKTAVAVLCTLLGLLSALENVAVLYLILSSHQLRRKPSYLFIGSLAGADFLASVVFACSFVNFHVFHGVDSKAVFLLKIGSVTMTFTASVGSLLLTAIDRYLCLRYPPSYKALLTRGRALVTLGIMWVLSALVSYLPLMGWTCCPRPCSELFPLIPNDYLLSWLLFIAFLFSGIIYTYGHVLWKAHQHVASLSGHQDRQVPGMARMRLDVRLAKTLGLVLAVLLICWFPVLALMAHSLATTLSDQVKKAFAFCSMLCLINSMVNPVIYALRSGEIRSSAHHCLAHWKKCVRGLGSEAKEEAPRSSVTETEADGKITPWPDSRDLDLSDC

SMILES	agonistic activity	also measured
CC(C)c1ccc(NC(=S)N2CCCN(C(=O)CC3CCCC3)CC2)cc1 [4-(2-Cyclopentyl-acetyl)-[1,4]diazepane-1-carbothioic acid (4-isopropyl-phenyl)-amide]	agonistic activity	–
CC(C)c1ccc(NC(=O)N2CCCN(C(=O)CCC3CCCCC3)CC2)cc1 [Compound 56, 4-(3-Cyclohexyl-propionyl)-[1,4]diazepane-1-carboxylic acid (4-isopropyl-phenyl)-amide]	–	Emax [1]: 103%; EC50 (read-out: hCB2 cAMP EC50): 22 nM
CC(C)(C)c1ccc(NC(=O)N2CCCN(C(=O)CC3CCOCC3)CC2)cc1 [4-(2-Tetrahydro-pyran-4-yl-acetyl)-[1,4]diazepane-1-carboxylic acid (4-tert-butyl-phenyl)-amide]	agonistic activity	–
CCC(C)c1cc(NC(=O)N2CCCN(C(=O)C3CCOCC3)CC2)on1 (stereo not shown) [Compound 193, 4-(Tetrahydro-pyran-4-carbonyl)-[1,4]diazepane-1-carboxylic acid (3-sec-butyl-isoxazol-5-yl)-amide]	–	EC50: 41 nM; Emax (CHO): 106%
O=C(CCC1CCCC1)N1CCCN(C(=O)Nc2ccc(C(F)(F)F)cc2)CC1 [4-(3-Cyclopentyl-propionyl)-[1,4]diazepane-1-carboxylic acid (4-trifluoromethyl-phenyl)-amide]	agonistic activity	–
O=C(Nc1ccc2ccccc2c1)N1CCCN(C(=O)c2cc(Cl)ccc2Cl)CC1 [4-(2,5-Dichloro-benzoyl)-[1,4]diazepane-1-carboxylic acid naphthalen-2-ylamide]	agonistic activity	–
O=C(CC1CCCC1)N1CCCN(C(=O)Nc2ccc(Cl)cc2Cl)CC1 [4-(2-Cyclopentyl-acetyl)-[1,4]diazepane-1-carboxylic acid (2,4-dichloro-phenyl)-amide]	agonistic activity	–
O=C(Nc1cc(-c2ccccc2)no1)N1CCCN(C(=O)C2CCOCC2)CC1 [4-(Tetrahydro-pyran-4-carbonyl)-[1,4]diazepane-1-carboxylic acid (3-phenyl-isoxazol-5-yl)-amide]	agonistic activity	–
CC(C)(C)c1cc(NC(=O)N2CCCN(C(=O)c3ccc(Cl)cc3)CC2)no1 [Compound 141, 4-(4-Chloro-benzoyl)-[1,4]diazepane-1-carboxylic acid (5-tert-butyl-isoxazol-3-yl)-amide]	–	Emax [1]: 101%; EC50 (read-out: hCB2 cAMP EC50): 11 nM
O=C(Nc1nc(C2CC2)cs1)N1CCCN(C(=O)c2ccc(Cl)cc2)CC1 [Compound 166, 4-(4-Chloro-benzoyl)-[1,4]diazepane-1-carboxylic acid (4-cyclopropyl-thiazol-2-yl)-amide]	–	Emax [1]: 91%; EC50 (read-out: hCB2 cAMP EC50): 90 nM
O=C(CC1CCCC1)N1CCCN(C(=O)Nc2cc(Cl)ccc2Cl)CC1 [4-(2-Cyclopentyl-acetyl)-[1,4]diazepane-1-carboxylic acid (2,5-dichloro-phenyl)-amide]	agonistic activity	–
CC(C)c1ccc(NC(=O)N2CCCN(C(=O)CC(C)(C)C)CC2)cc1 [Compound 60, 4-(3,3-Dimethyl-butyryl)-[1,4]diazepane-1-carboxylic acid (4-isopropyl-phenyl)-amide]	–	EC50: 78 nM; Emax (CHO): 71%
CC(C)(C)c1ccc(NC(=O)N2CCCN(C(=O)CCC(F)(F)F)CC2)cc1 [4-(4,4,4-Trifluoro-butyryl)-[1,4]diazepane-1-carboxylic acid (4-tert-butyl-phenyl)-amide]	agonistic activity	–
CC(=O)N1CCC(C(=O)N2CCCN(C(=O)Nc3cc(C(C)(C)C)on3)CC2)CC1 [4-(1-Acetyl-piperidine-4-carbonyl)-[1,4]diazepane-1-carboxylic acid (5-tert-butyl-isoxazol-3-yl)-amide]	agonistic activity	–
CC(C)(C)c1ccc(NC(=O)N2CCCN(C(=O)c3ccc(C#N)cc3)CC2)cc1 [4-(4-Cyano-benzoyl)-[1,4]diazepane-1-carboxylic acid (4-tert-butyl-phenyl)-amide]	agonistic activity	–
CC(C)(C)c1cc(NC(=O)N2CCCN(C(=O)C3CCOCC3)CC2)no1 [4-(Tetrahydro-pyran-4-carbonyl)-[1,4]diazepane-1-carboxylic acid (5-tert-butyl-isoxazol-3-yl)-amide]	agonistic activity	–
O=C(Nc1ccc2ccccc2c1)N1CCCN(C(=O)c2ccc(Cl)cc2)CC1 [4-(4-Chloro-benzoyl)-[1,4]diazepane-1-carboxylic acid naphthalen-2-ylamide]	agonistic activity	–
O=C(CC1CCCC1)N1CCCN(C(=O)Nc2ccc3ccccc3c2)CC1 [Compound 48, 4-(2-Cyclopentyl-acetyl)-[1,4]diazepane-1-carboxylic acid (2-naphthyl)-amide]	–	Emax [1]: 100%; EC50 (read-out: hCB2 cAMP EC50): 53 nM
O=C(Nc1cnc2ccccc2c1)N1CCCN(C(=O)C2CCOCC2)CC1 [4-(Tetrahydro-pyran-4-carbonyl)-[1,4]diazepane-1-carboxylic acid quinolin-3-ylamide]	agonistic activity	–

SMILES	agonistic activity	also measured
CC(C)CCC(=O)N1CCCN(C(=O)Nc2ccc(C(C)C)cc2)CC1 [4-(4-Methyl-pentanoyl)-[1,4]diazepane-1-carboxylic acid (4-isopropyl-phenyl)-amide]	agonistic activity	–
O=C(CC1CCOCC1)N1CCCN(C(=O)Nc2ccc3ccccc3c2)CC1 [4-(2-Tetrahydro-pyran-4-yl-acetyl)-[1,4]diazepane-1-carboxylic acid (2-naphthyl)-amide]	agonistic activity	–
CC(C)(C)c1cc(NC(=O)N2CCCN(C(=O)CN3CCSCC3)CC2)no1 [4-(2-Thiomorpholin-4-yl-acetyl)-[1,4]diazepane-1-carboxylic acid (5-tert-butyl-isoxazol-3-yl)-amide]	agonistic activity	–
CN(C)c1ccc(NC(=O)N2CCCN(C(=O)CCC3CCCC3)CC2)cc1 [4-(3-Cyclopentyl-propionyl)-[1,4]diazepane-1-carboxylic acid (4-dimethylamino-phenyl)-amide]	agonistic activity	–
O=C(CCC1CCCC1)N1CCCN(C(=O)NCC2CCCCC2)CC1 [4-(3-Cyclopentyl-propionyl)-[1,4]diazepane-1-carboxylic acid cyclohexylmethyl-amide]	agonistic activity	–
O=C(CN1CCCCC1)N1CCCN(C(=O)Nc2ccc3ccccc3c2)CC1 [4-(2-Piperidin-1-yl-acetyl)-[1,4]diazepane-1-carboxylic acid naphthalen-2-ylamide]	agonistic activity	–
O=C(Nc1ccc(C(F)(F)F)cc1)N1CCCN(C(=O)c2ccc(Cl)cc2)CC1 [4-(4-Chloro-benzoyl)-[1,4]diazepane-1-carboxylic acid (4-trifluoromethyl-phenyl)-amide]	agonistic activity	–
CC(C)(C)c1cc(NC(=O)N2CCCN(C(=O)C3CCC(F)(F)CC3)CC2)no1 [Compound 144, 4-(4,4-Difluoro-cyclohexanecarbonyl)-[1,4]diazepane-1-carboxylic acid (5-tert-butyl-isoxazol-3-yl)-amide]	–	EC50: 1.3 nM; Emax (CHO): 98%
CC(C)CC(=O)N1CCCN(C(=O)Nc2cc(C(C)(C)C)on2)CC1 [4-(3-Methyl-butyryl)-[1,4]diazepane-1-carboxylic acid (5-tert-butyl-isoxazol-3-yl)-amide]	agonistic activity	–
CC(C)(C)CC(=O)N1CCCN(C(=O)Nc2ccc(C(C)(C)C)cc2)CC1 [4-(3,3-Dimethyl-butyryl)-[1,4]diazepane-1-carboxylic acid (4-tert-butyl-phenyl)-amide]	agonistic activity	–
CC(C)(C)c1ccc(NC(=O)N2CCCN(C(=O)c3ccc(Cl)c(Cl)c3)CC2)cc1 [4-(3,4-Dichloro-benzoyl)-[1,4]diazepane-1-carboxylic acid (4-tert-butyl-phenyl)-amide]	agonistic activity	–
CC1(O)CCC(C(=O)N2CCCN(C(=O)Nc3cc(C(C)(C)C)on3)CC2)CC1 (stereo not shown) [4-(4-Hydroxy-4-methyl-cyclohexanecarbonyl)-[1,4]diazepane-1-carboxylic acid (5-tert-butyl-isoxazol-3-yl)-amide]	agonistic activity	–
CCC(C)c1cc(NC(=O)N2CCCN(C(=O)C3CCOCC3)CC2)on1 (stereo not shown) [4-(Tetrahydro-pyran-4-carbonyl)-[1,4]diazepane-1-carboxylic acid (3-sec-butyl-isoxazol-5-yl)-amide]	agonistic activity	–
Cc1sc(NC(=O)N2CCCN(C(=O)C3CCOCC3)CC2)nc1C(C)(C)C [Compound 186, 4-(Tetrahydro-pyran-4-carbonyl)-[1,4]diazepane-1-carboxylic acid (4-tert-butyl-5-methyl-thiazol-2-yl)-amide]	–	Emax [1]: 91%; EC50 (read-out: hCB2 cAMP EC50): 58 nM
CC(C)CCC(=O)N1CCCN(C(=O)Nc2ccc3ccccc3c2)CC1 [4-(4-Methyl-pentanoyl)-[1,4]diazepane-1-carboxylic acid naphthalen-2-ylamide]	agonistic activity	–
CC(C)(C)c1ccc(NC(=O)N2CCCN(C(=O)CCC3CC3)CC2)cc1 [4-(3-Cyclopropyl-propionyl)-[1,4]diazepane-1-carboxylic acid (4-tert-butyl-phenyl)-amide]	agonistic activity	–
CC(C)(C)c1cc(NC(=O)N2CCCN(C(=O)C3CCCOC3)CC2)no1 (stereo not shown) [4-(Tetrahydro-pyran-3-carbonyl)-[1,4]diazepane-1-carboxylic acid (5-tert-butyl-isoxazol-3-yl)-amide]	agonistic activity	–
CC(C)(C)c1cc(NC(=O)N2CCCN(C(=O)C3CCCO3)CC2)no1 (stereo not shown) [4-(Tetrahydro-furan-2-carbonyl)-[1,4]diazepane-1-carboxylic acid (5-tert-butyl-isoxazol-3-yl)-amide]	agonistic activity	–
O=C(CC1CCOCC1)N1CCCN(C(=O)Nc2cc(Cl)cc(Cl)c2)CC1 [4-(2-Tetrahydro-pyran-4-yl-acetyl)-[1,4]diazepane-1-carboxylic acid (3,5-dichloro-phenyl)-amide]	agonistic activity	–
